test system: anti-M2 human monoclonal antibody Z3G1; assay type: binding

Row | Substance | Signal (peptides that bind to Z3G1) | Signal (peptides that show specific binding to Z3G1)
1 | 1481 (CVETPIRNEWLLTEVETPICEVETPIRNE; epitope peptide; MISC_FEATURE (1)..(1): C is an attachment site for a CLIP; MISC_FEATURE (10)..(10): W is an attachment site for a CLIP; MISC_FEATURE (11)..(11): L is an attachment site for a CLIP; MISC_FEATURE (29)..(29): E is an attachment site for a CLIP) [compound 1481] | 1592 | 
2 | 1482 (CETPIRNEWGLLTEVETPICEVETPIRNE; epitope peptide; MISC_FEATURE (1)..(1): C is an attachment site for a CLIP; MISC_FEATURE (10)..(10): G is an attachment site for a CLIP; MISC_FEATURE (11)..(11): L is an attachment site for a CLIP; MISC_FEATURE (29)..(29): E is an attachment site for a CLIP) [compound 1482] | 1648 | 
3 | 1494 (CLTEVETPIRLLTEVETPICVETPIRNEW; epitope peptide; MISC_FEATURE (1)..(1): C is an attachment site for a CLIP; MISC_FEATURE (10)..(10): R is an attachment site for a CLIP; MISC_FEATURE (11)..(11): L is an attachment site for a CLIP; MISC_FEATURE (29)..(29): W is an attachment site for a CLIP) [compound 1494] | 2443 | 
4 | 1495 (CTEVETPIRNLLTEVETPICVETPIRNEW; epitope peptide; MISC_FEATURE (1)..(1): C is an attachment site for a CLIP; MISC_FEATURE (10)..(10): N is an attachment site for a CLIP; MISC_FEATURE (11)..(11): L is an attachment site for a CLIP; MISC_FEATURE (29)..(29): W is an attachment site for a CLIP) [compound 1495] | 2088 | 
5 | 1496 (CEVETPIRNELLTEVETPICVETPIRNEW; epitope peptide; MISC_FEATURE (1)..(1): C is an attachment site for a CLIP; MISC_FEATURE (10)..(10): E is an attachment site for a CLIP; MISC_FEATURE (11)..(11): L is an attachment site for a CLIP; MISC_FEATURE (29)..(29): W is an attachment site for a CLIP) [compound 1496] | 1625 | 
6 | 1497 (CVETPIRNEWLLTEVETPICVETPIRNEW; epitope peptide; MISC_FEATURE (1)..(1): C is an attachment site for a CLIP; MISC_FEATURE (10)..(10): W is an attachment site for a CLIP; MISC_FEATURE (11)..(11): L is an attachment site for a CLIP; MISC_FEATURE (29)..(29): W is an attachment site for a CLIP) [compound 1497] | 1817 | 
7 | 1498 (CETPIRNEWGLLTEVETPICVETPIRNEW; epitope peptide; MISC_FEATURE (1)..(1): C is an attachment site for a CLIP; MISC_FEATURE (10)..(10): G is an attachment site for a CLIP; MISC_FEATURE (11)..(11): L is an attachment site for a CLIP; MISC_FEATURE (29)..(29): W is an attachment site for a CLIP) [compound 1498] | 1817 | 
8 | 1511 (CLTEVETPIRLLTEVETPICETPIRNEWG; epitope peptide; MISC_FEATURE (1)..(1): C is an attachment site for a CLIP; MISC_FEATURE (10)..(10): R is an attachment site for a CLIP; MISC_FEATURE (11)..(11): L is an attachment site for a CLIP; MISC_FEATURE (29)..(29): G is an attachment site for a CLIP) [compound 1511] |  | 2175
9 | 1512 (CTEVETPIRNLLTEVETPICETPIRNEWG; epitope peptide; MISC_FEATURE (1)..(1): C is an attachment site for a CLIP; MISC_FEATURE (10)..(10): N is an attachment site for a CLIP; MISC_FEATURE (11)..(11): L is an attachment site for a CLIP; MISC_FEATURE (29)..(29): G is an attachment site for a CLIP) [compound 1512] |  | 2645
10 | 1513 (CEVETPIRNELLTEVETPICETPIRNEWG; epitope peptide; MISC_FEATURE (1)..(1): C is an attachment site for a CLIP; MISC_FEATURE (10)..(10): E is an attachment site for a CLIP; MISC_FEATURE (11)..(11): L is an attachment site for a CLIP; MISC_FEATURE (29)..(29): G is an attachment site for a CLIP) [compound 1513] |  | 2466
11 | 1514 (CVETPIRNEWLLTEVETPICETPIRNEWG; epitope peptide; MISC_FEATURE (1)..(1): C is an attachment site for a CLIP; MISC_FEATURE (10)..(10): W is an attachment site for a CLIP; MISC_FEATURE (11)..(11): L is an attachment site for a CLIP; MISC_FEATURE (29)..(29): G is an attachment site for a CLIP) [compound 1514] |  | 2575
12 | 1515 (CETPIRNEWGLLTEVETPICETPIRNEWG; epitope peptide; MISC_FEATURE (1)..(1): C is an attachment site for a CLIP; MISC_FEATURE (10)..(10): G is an attachment site for a CLIP; MISC_FEATURE (11)..(11): L is an attachment site for a CLIP; MISC_FEATURE (29)..(29): G is an attachment site for a CLIP) [compound 1515] |  | 2427
13 | 1534 (SLLCEVETPIRNEWGCRCNDSSD; epitope peptide) [compound 1534] |  | 2161
14 | 1550 (SLLCEVGCLLTEV; epitope peptide) [compound 1550] |  | 1997
15 | 1551 (SLLCEVGSCLTEV; epitope peptide) [compound 1551] |  | 2499
16 | 1552 (SLLCEVGSLCTEV; epitope peptide) [compound 1552] |  | 2722
17 | 1553 (CLLTEVGSLLCEV; epitope peptide) [compound 1553] |  | 2168
18 | 1554 (SLLCEVGSLLCEV; epitope peptide) [compound 1554] |  | 2399
19 | 1555 (SLLTCVGSLLCEV; epitope peptide) [compound 1555] |  | 2264
20 | 1556 (CSCLCEVGSLLCEV; epitope peptide) [compound 1556] |  | 1583

From patent publication US8932597B2 (priority 2008, dated 2015)
